Assays:
[1] = target: T1, MDR1 (Homo sapiens, UniProt P08183); experiment: MDR1 membrane permeability test; type: in vitro ADME; conditions: pH 7.4, human MDR1-expressing LLC-PK1 cells, 10 μmol/L test compound, read-out: Efflux ratio (ER)
T1 construct: expressed in transfected cells
Method: MDR1 Membrane Permeability Test
When MDR1 is expressed in excess in LLC-PK1 cell, which is a polar cell, MDR1 is localized in apical membrane (A), thus promoting transcellular transport from the basement membrane side (B) toward direction A. When a ratio to the transcellular transport in the opposite direction is taken and a ratio to a control cell in which a mock vector has been introduced is further taken, an efflux ratio of MDR1 to simple diffusion (corrected efflux ratio) is calculated. Similarly, when a brain/plasma concentration ratio in Mdr1(−/−) mouse is divided by a brain/plasma concentration ratio in wild-type mouse, an efflux ratio of Mdr1 to simple diffusion in blood-brain barrier (BBB) (Kp, brain ratio, higher value means lower central nervous system permeability) is calculated. Adachi Y. et al. (Reference 1) has reported a positive correlation between corrected efflux ratio and Kp, brain ratio (FIG. 5(C)), and efflux ratio in MDR1 expressing cell and Kp, brain ratio (FIG. 5(B)).
To confirm the central nervous system permeability of the compounds of the present invention, a MDR1 membrane permeability test was performed by the following method.
Digoxin and lucifer yellow (LY) were purchased from Sigma-Aldrich™, Diclofenac, colchicine and alprenolol were purchased from Wako Pure Chemical Industries, Ltd., and other reagents used were commercially available products of special grade.
Human MDR1-expressing LLC-PK1 cells were cultured according to the report of Takeuchi et al. (Reference 2). Human MDR1-expressing LLC-PK1 cells were cultured in 10% fetal bovine serum (Invitrogen™), 500 μg/ml G418 (Invitrogen™), 150 ng/ml colchicine-containing M199 medium (Invitrogen™) under 5% CO2 conditions at 37° C.
Transcellular transport was performed according to the report of Sugimoto et al. (Reference 3). The cells were cultured for 3 days on HTS Transwell™ (registered trademark) 96 well permeable support (pore size 0.4 μm, 0.143 cm^2 surface area, Corning Life Sciences) having polyethylene terephthalate membrane on which the cells had been seeded at 3.45×10^4 cells/well. After preincubation in M199 medium (containing 10 mmol/L HEPES, 1% BSA, pH 7.4) for 30 min, a drug solution (10 μmol/L digoxin, 200 μmol/L LY, 10 μmol/L test compound) dissolved in M199 medium was added to the apical side or basolateral side of the Transwell™ by 75 or 250 μL each and the cells were cultured under 5% CO2 conditions at 37° C. After 1 hr, the sample was collected from the side opposite to the side where the drug solution was added, and the concentration of the test compound was measured by LC-MS/MS. As an internal standard substance, 100 ng/mL alprenolol and diclofenac were used. The analysis conditions were as follows. • LC: UFLC LC-20 (Shimadzu™) • MS/MS: API4000 (AB Sciex™ Instruments) • LC condition: gradient method
• Column: Unison UK-C18 HT (3.0 μm, 2.0×20 mm) • Column temperature: 50° C. • Flow rate: 0.7 mL/min (for 1.5 min run), 1.0 mL/min (for 1.0 min run) • Mobile phase A: 50 mM CH3COONH4:MeCN:water=1:1:8 • Mobile phase B: 50 mM CH3COONH4:MeCN=1:9 • Injection volume: 1-20 μL
LY was measured by a fluorescence plate reader (Fluoroskan Ascent FL).
Papp, A to B and Papp, B to A (apparent permeability) were calculated from the formula (1), and the efflux ratio (ER) was calculated from the formula (2).
[formula] • Amount: amount of transported digoxin/well • Area: surface area of cell monolayer (0.143 cm^2) • C0: concentration of drug solution added • Time: incubation time

[2] = tested on: Male SD rats; experiment: Rat defecation experiment; type: in vivo; conditions: oral, mean±standard error
Method: Rat Defecation Experiment
Male SD rats (5-6 weeks old) were used after an acclimation period for about 1 week. A test drug (1 mg/kg or 3 mg/kg) was suspended in 0.5% methylcellulose solution and orally administered at a volume of 5 mL/kg, and the number of feces for 2 hr later was counted. Only 0.5% methylcellulose was administered to a solvent administration group.

[3] = tested on: Male beagle dogs; experiment: Experiment on gastrointestinal motility in dogs; type: in vivo, dog; conditions: 4 or 8 hr after administration, compared with solvent administration group
Method: Experiment on Gastrointestinal Motility in Dogs
Male beagle dogs each equipped with four pressure transducers (one in the ileum and three in the large intestine) were used after an acclimation period for 15 days. The compound of Example 13 (0.03 mg/kg) or the compound of Example 60 (1 mg/kg) was suspended in 0.5% methylcellulose solution and orally administered at a volume of 10 mL/kg. Only 0.5% methylcellulose was administered to a solvent administration group.
HAPC (abbreviation for high amplitude propagated contractions which mean strong contractions propagated from the oral side to the anal side of the large intestine during defecation. Intestinal contraction pattern observed during normal defecation.) at 4 or 8 hr after administration was counted using a telemeter for gastrointestinal motility (GTS-850, STARMEDICAL).

T1 sequence (P08183 whole entry): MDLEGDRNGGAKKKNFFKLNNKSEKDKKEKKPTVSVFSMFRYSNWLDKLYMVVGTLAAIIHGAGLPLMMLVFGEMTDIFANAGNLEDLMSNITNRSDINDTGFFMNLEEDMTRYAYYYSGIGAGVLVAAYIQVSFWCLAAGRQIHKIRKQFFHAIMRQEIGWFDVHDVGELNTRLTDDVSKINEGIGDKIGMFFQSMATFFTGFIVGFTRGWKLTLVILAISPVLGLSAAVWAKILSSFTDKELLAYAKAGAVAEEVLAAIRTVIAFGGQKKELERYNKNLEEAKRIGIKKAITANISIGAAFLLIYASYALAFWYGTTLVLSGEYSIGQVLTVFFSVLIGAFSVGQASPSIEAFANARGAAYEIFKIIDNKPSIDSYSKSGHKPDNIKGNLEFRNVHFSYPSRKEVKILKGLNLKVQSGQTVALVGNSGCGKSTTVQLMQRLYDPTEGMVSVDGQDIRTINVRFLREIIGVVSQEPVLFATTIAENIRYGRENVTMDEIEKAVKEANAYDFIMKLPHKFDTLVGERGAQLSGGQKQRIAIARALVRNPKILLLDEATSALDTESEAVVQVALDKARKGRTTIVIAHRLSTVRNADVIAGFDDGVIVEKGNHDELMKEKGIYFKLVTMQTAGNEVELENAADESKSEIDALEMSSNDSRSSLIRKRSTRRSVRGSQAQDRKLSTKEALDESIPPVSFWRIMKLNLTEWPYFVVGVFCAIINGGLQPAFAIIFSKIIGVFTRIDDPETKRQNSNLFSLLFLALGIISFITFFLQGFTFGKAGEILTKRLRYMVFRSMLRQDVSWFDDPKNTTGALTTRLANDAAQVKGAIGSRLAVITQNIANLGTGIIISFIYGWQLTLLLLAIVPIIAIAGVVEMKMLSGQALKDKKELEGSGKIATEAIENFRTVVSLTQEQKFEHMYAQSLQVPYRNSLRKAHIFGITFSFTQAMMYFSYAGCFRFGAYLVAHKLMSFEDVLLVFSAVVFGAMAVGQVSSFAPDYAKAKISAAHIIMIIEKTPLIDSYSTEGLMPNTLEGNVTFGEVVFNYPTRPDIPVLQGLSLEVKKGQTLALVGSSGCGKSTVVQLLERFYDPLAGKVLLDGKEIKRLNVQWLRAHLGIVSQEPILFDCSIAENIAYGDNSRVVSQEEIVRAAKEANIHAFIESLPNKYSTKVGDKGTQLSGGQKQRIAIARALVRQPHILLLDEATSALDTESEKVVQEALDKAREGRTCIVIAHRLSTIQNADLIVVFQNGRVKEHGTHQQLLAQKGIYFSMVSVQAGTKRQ

SMILES | efflux ratio at 1 h, 10 μmol/L [1] | number of feces 2 hr later ([2]; 1 mg/kg) | number of feces 2 hr later ([2]; 3 mg/kg) | number of HAPCs in the intestinal tract ([3]; oral 0.03 mg/kg) | number of HAPCs in the intestinal tract ([3]; oral 1 mg/kg)
Cn1cnc(-c2ccc(Cc3cc(C(=O)N[C@H]4CCOC[C@@H]4O)c(F)c4c3OCC4)cc2)c1 [Example 5, 1,5-anhydro-2,3-dideoxy-3-(((4-fluoro-7-(4-(1-methyl-1H-imidazol-4-yl)benzyl)-2,3-dihydro-1-benzofuran-5-yl)carbonyl)amino)-L-threo-pentitol] | 7.3 | 6.3 ± 0.7 | 8.7 ± 1.2 |  | 
Cn1cc(-c2ccc(Cc3cc(C(=O)N[C@H]4CCOC[C@@H]4O)c(F)c4c3OCC4)cn2)cn1 [Example 6, 1,5-anhydro-2,3-dideoxy-3-(((4-fluoro-7-((6-(1-methyl-1H-pyrazol-4-yl)pyridin-3-yl)methyl)-2,3-dihydro-1-benzofuran-5-yl)carbonyl)amino)-L-threo-pentitol] | 18 | 6.6 ± 0.9 |  |  | 
COCCNC(=O)c1ccc(Cc2cc(C(=O)N[C@H]3CCOC[C@@H]3O)c(F)c3c2OCC3)cc1F [Example 13, 1,5-anhydro-2,3-dideoxy-3-(((4-fluoro-7-(3-fluoro-4-((2-methoxyethyl)carbamoyl)benzyl)-2,3-dihydro-1-benzofuran-5-yl)carbonyl)amino)-L-threo-pentitol] | 10 | 9.9 ± 1.6 |  | an increase in the number of HAPCs in the intestinal tract was observed | 
CCOCCNC(=O)c1ccc(Cc2cc(C(=O)N[C@H]3CCOC[C@@H]3O)c(F)c3c2OCC3)cc1F [Example 14, 1,5-anhydro-2,3-dideoxy-3-(((7-(4-((2-ethoxyethyl)carbamoyl)-3-fluorobenzyl)-4-fluoro-2,3-dihydro-1-benzofuran-5-yl)carbonyl)amino)-L-threo-pentitol] | 9.3 | 6.8 ± 1.3 | 10.4 ± 1.1 |  | 
CNC(=O)c1ccc(Cc2cc(C(=O)N[C@H]3CCOC[C@@H]3O)c(OC)c3c2OCC3)cc1F [Example 31, 1,5-anhydro-2,3-dideoxy-3-(((7-(3-fluoro-4-(methylcarbamoyl)benzyl)-4-methoxy-2,3-dihydro-1-benzofuran-5-yl)carbonyl)amino)-L-threo-pentitol] | 28 | 5.9 ± 0.9 |  |  | 
COCCCNC(=O)c1ccc(Cc2cc(C(=O)N[C@H]3CCOC[C@@H]3O)c(OC)c3c2CCC3)cc1F [Example 60, 1,5-anhydro-2,3-dideoxy-3-(((7-(3-fluoro-4-((3-methoxypropyl)carbamoyl)benzyl)-4-methoxy-2,3-dihydro-1H-inden-5-yl)carbonyl)amino)-L-threo-pentitol] | 15 | 6.9 ± 1.2 | 11.4 ± 1.2 |  | an increase in the number of HAPCs in the intestinal tract was observed
